Experimental data published in article PMC10202811 (Nature Medicine, 2023).
“And” between values parts separate entries of the source, which are not always exact repeats. Equal entries are not always repeated. Marks after values point to notes of the source that are not given here.

Assay: Toxicity assessment (CTCAE version 4): treatment-related AEs, DLTs, dose reductions, RP2D; phase 1 NANT2015-02
Procedure: Five DLs (45, 60, 75, 95 and 115 mg/m^2/dose) were assessed in A1, using a 3 + 3 design. […] Myeloid growth factor was given 24 hours after the completion of topotecan/cyclophosphamide on B2, according to institutional standards. Instructions and hands-on training for a tablet dispersion formulation, validated by Pfizer, was provided to families of patients who could not swallow tablets.
Initially, this was the only DL planned, but, with a subsequent amendment, a second DL was added to cohort A2 (150 mg). […] Finally, because of the nature of the patients in cohort A2 (which had only two planned DLs), an expansion of up to six additional patients was planned for the highest DL tested with zero or one DLT in six DLT-evaluable patients. Accrual could continue in the expansion cohort as long as none, or at most one, of the patients experienced DLT in the DLT observation period; if two or more patients experienced DLT in the DLT observation period, this would lead to a discussion of the suitability of this dose. The probability of observing […] with DLT, out of six patients, is 0.11, 0.22, 0.47, 0.68 and 0.77 when the true probability of DLT is 0.10, 0.15, 0.25, 0.35 and 0.40, respectfully.
Patients who were not evaluable for DLT were replaced for dose-escalation purposes. […] The MTD was defined as the highest DL tested at which zero of six or one of six patients experience DLT. After determination of the MTD and review of all toxicities, and provided that other safety considerations were acceptable, the MTD was labeled the RP2D.
Toxicity was graded according to CTCAE version 4. DLT definitions included only toxicities deemed at least possibly related to therapy. For A1 and A2, hematologic DLT was defined as grade 4 thrombocytopenia or grade 4 neutropenia >7-day duration or a delay in the start of subsequent course by more than 14 days due to ongoing thrombocytopenia or neutropenia, in the absence of bone marrow disease progression seen on clinically indicated bone marrow biopsy (if performed). For cohort B2, hematological DLT is defined as a delay in the start of subsequent course by more than 14 days due to ongoing thrombocytopenia or neutropenia, in the absence of bone marrow disease progression seen on clinically indicated bone marrow biopsy after the first dose reduction of cyclophosphamide and topotecan. Non-hematologic DLT was defined as any non-hematologic toxicity that delayed the start of a subsequent cycle by more than 14 days or any grade ≥3 toxicity, with the exception of the following grade 3 toxicities: nausea, vomiting, anorexia or dehydration resolving to grade ≤2 within 72 hours; increase in hepatic transaminase or electrolyte abnormality resolving eligibility levels within 7 days; diarrhea persisting for less than 72 hours; fever; infection; febrile neutropenia; high cholesterol or triglycerides if responsive (to ≤grade 2) with statin treatment; weight gain; and hyperglycemia if responsive (to <grade 2) with dietary modification.

[1] = Cohort A1, one line per patient (PID)
[2] = Cohort A2, neurotoxicity, one line per patient (PID)
[3] = Cohort A2, one line per patient (PID)
[4] = patients <18 years, single agent
[5] = single-agent lorlatinib across all ages, grade 1–4 treatment-related

With `C[C@H]1Oc2cc(cnc2N)-c2c(nn(C)c2C#N)CN(C)C(=O)c2ccc(F)cc21` [Lorlatinib, (10R)-7-amino-12-fluoro-2,10,16-trimethyl-15-oxo-10,15,16,17-tetrahydro-2H-8,4-(metheno)pyrazolo[4,3-h][2,5,11]-benzoxadiazacyclotetradecine-3-carbonitrile] the “Nausea: Toxicity Maximum Grade per patient” value [1] was 1, the “Neutrophil count decreased: Toxicity Maximum Grade per patient” value [1] was 2 and the “Peripheral sensory neuropathy: Toxicity Maximum Grade per patient” value [1] was 2 and 1. The “Platelet count decreased: Toxicity Maximum Grade per patient” value [1] was 1, the “Tinnitus: Toxicity Maximum Grade per patient” value [1] was 1 and the “Vomiting: Toxicity Maximum Grade per patient” value [1] was 1. For the same compound, the “Weight gain: Toxicity Maximum Grade per patient” value [1] was 2 and 3 and 1, the “White blood cell decreased: Toxicity Maximum Grade per patient” value [1] was 1 and 3 and the “Patients with DLT in course 1” value (Cohort A2, 100 mg) was 0. For the same compound, the “Patients with DLT in course 2” value (Cohort A2, 100 mg) was 0, the “Patients with DLT in other courses” value (Cohort A2, 100 mg) was 2^c and the “Patients with DLT in course 1” value (Cohort A2, 150 mg) was 1^d. The “Patients with DLT in course 2” value (Cohort A2, 150 mg) was 2^e,f, the “Patients with DLT in other courses” value (Cohort A2, 150 mg) was 3^e,f,g and the “Toxicity Maximum Grade per patient: Sinus tachycardia” value (Cohort A2, patient PID 8, CTCAE grade) was 1. The Neutrophil count decreased (Cohort A2, grade 1-2, 3, 4 in c8-c10) was 0 (0) n (%), the “Hypersomnia (CNS effect)” value (Cohort A2, grade 1-4 in c5-c8) was 0 (0) and the “Agitation: Toxicity Maximum Grade per patient” value [2] was 4 and 3 and 1. The “Anxiety: Toxicity Maximum Grade per patient” value [2] was 4 and 3 and 2 and 1, the “Cognitive disturbance: Toxicity Maximum Grade per patient” value [2] was 1 and 2 and the “Concentration impairment: Toxicity Maximum Grade per patient” value [2] was 1 and 2 and 3. The “Depression: Toxicity Maximum Grade per patient” value [2] was 1 and 3, the “Hallucinations: Toxicity Maximum Grade per patient” value [2] was 1 and 4 and the “Headache: Toxicity Maximum Grade per patient” value [2] was 1. The “Memory impairment: Toxicity Maximum Grade per patient” value [2] was 1 and 2 and 3, the “Alanine aminotransferase increased: Toxicity Maximum Grade per patient” value [3] was 1 and 2 and the “Alkaline phosphatase increased: Toxicity Maximum Grade per patient” value [3] was 1. The “Anemia: Toxicity Maximum Grade per patient” value [3] was 3 and 1 and 2, the “Aspartate aminotransferase increased: Toxicity Maximum Grade per patient” value [3] was 1 and 2 and the “Cholesterol high: Toxicity Maximum Grade per patient” value [3] was 2 and 3 and 1. The “Creatinine increased: Toxicity Maximum Grade per patient” value [3] was 1 and 2, the “Diarrhea: Toxicity Maximum Grade per patient” value [3] was 2 and 1 and the “Edema limbs: Toxicity Maximum Grade per patient” value [3] was 1 and 2. For the same compound, the “Electrocardiogram QT corrected interval prolonged: Toxicity Maximum Grade per patient” value [3] was 1, the “Fatigue: Toxicity Maximum Grade per patient” value [3] was 1 and the “Flatulence: Toxicity Maximum Grade per patient” value [3] was 1. The “Gastroesophageal reflux disease: Toxicity Maximum Grade per patient” value [3] was 2 and 1, the “Hyperglycemia: Toxicity Maximum Grade per patient” value [3] was 1 and 3 and the “Hypertriglyceridemia: Toxicity Maximum Grade per patient” value [3] was 3 and 2 and 1. For the same compound, the “INCREASED APPETITE: Toxicity Maximum Grade per patient” value [3] was 1 and 2, the “Irritability: Toxicity Maximum Grade per patient” value [3] was 4 and the “Lymphocyte count decreased: Toxicity Maximum Grade per patient” value [3] was 4 and 1. The “Nausea: Toxicity Maximum Grade per patient” value [3] was 1 and 2, the “Peripheral sensory neuropathy: Toxicity Maximum Grade per patient” value [3] was 3 and 2 and 1 and the “Platelet count decreased: Toxicity Maximum Grade per patient” value [3] was 1 and 2. For the same compound, the “Tinnitus: Toxicity Maximum Grade per patient” value [3] was 1, the “Vomiting: Toxicity Maximum Grade per patient” value [3] was 1 and the “Weight gain: Toxicity Maximum Grade per patient” value [3] was 2 and 1 and 3. For the same compound, the “White blood cell decreased: Toxicity Maximum Grade per patient” value [3] was 1 and 2, the “Patients with DLT in course 1” value (Cohort B2, DL4 (95 mg/m^2)) was 0 and the “Patients with DLT in course 2” value (Cohort B2, DL4 (95 mg/m^2)) was 0. For the same compound, the “Patients with DLT in other courses” value (Cohort B2, DL4 (95 mg/m^2)) was 0, the “Patients with DLT in course 1” value (Cohort B2, DL5 (115 mg/m^2)) was 0 and the “Patients with DLT in course 2” value (Cohort B2, DL5 (115 mg/m^2)) was 0. For the same compound, the “Patients with DLT in other courses” value (Cohort B2, DL5 (115 mg/m^2)) was 1^h, the “Amnesia (CNS effect)” value (Cohort B2, grade 1-4 in c9-c12) was 0 (0) and the “Delirium (CNS effect)” value (Cohort B2, grade 1-4 in c9-c12) was 0 (0). The “Delusions (CNS effect)” value (Cohort B2, grade 1-4 in c9-c12) was 0 (0), the “Depressed level of consciousness (CNS effect)” value (Cohort B2, grade 1-4 in c9-c12) was 0 (0) and the “Dizziness (CNS effect)” value (Cohort B2, grade 1-4 in c9-c12) was 0 (0). For the same compound, the “Dysarthria (CNS effect)” value (Cohort B2, grade 1-4 in c9-c12) was 0 (0), the “Euphoria (CNS effect)” value (Cohort B2, grade 1-4 in c9-c12) was 0 (0) and the “Mania (CNS effect)” value (Cohort B2, grade 1-4 in c9-c12) was 0 (0). The “Paresthesia (CNS effect)” value (Cohort B2, grade 1-4 in c9-c12) was 0 (0), the “Psychosis (CNS effect)” value (Cohort B2, grade 1-4 in c9-c12) was 0 (0) and the “Restlessness (CNS effect)” value (Cohort B2, grade 1-4 in c9-c12) was 0 (0). The “Stuttering (CNS effect)” value (Cohort B2, grade 1-4 in c9-c12) was 0 (0), the “Suicidal ideation (CNS effect)” value (Cohort B2, grade 1-4 in c9-c12) was 0 (0) and the “incidence of peripheral neuropathy” value (adults, single agent) was 27%. For the same compound, the RP2D (in combination with topotecan/cyclophosphamide, patients <18 years, daily (DL5)) was 115 mg/m^2, the “hypertriglyceridemia, patients with AE” value (lorlatinib combined with topotecan/cyclophosphamide, <18 years) was 89% and the “Grade 1–2 peripheral limb edema” value [4] was 4%. For the same compound, the “incidence of peripheral neuropathy” value [4] was 13%, the “Grade 1–2 peripheral limb edema” value (patients ≥18 years, single agent) was 47% and the “RP2D <18 years relative to the adult RP2D” value (single agent, 115 mg/m^2/dose daily) was “approximately 200%”. The RP2D (single agent, patients <18 years, daily (DL5)) was 115 mg/m^2, the RP2D (single agent, patients ≥18 years, daily) was 150 mg and the “hypercholesterolemia / elevated cholesterol, patients with AE” value [5] was 79%. The “hypertriglyceridemia, patients with AE” value [5] was 90%, the “weight gain, patients with AE” value [5] was 87% and the “patients developing grade 2–4 CNS effects” value (≥18 years (cohort A2), four of 15) was 27%. For the same compound, the “patients requiring dose reduction due to toxicities” value (≥18 years, 150 mg (n = 10)) was 50%.
